Test [1] in a line: CD40 pathway inhibition in B cells – B cell lineage, dose response (AID 1259332).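 Further: cells stimulated with CD40 ligand tCD40L.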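 On activity change, negative = inhibition: 0% = neutral control wells and -100% = positive control wells.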 The following applies: B cell line, CD40 signaling inhibition reporter.
The test system of test [2] is B cell line, CD40 signaling inhibition reporter. The description is as above.

Broadly, the AC50 is the concentration giving half of the maximal activity seen.

Molecules are shown by their SMILES. Calls of active or inactive are those of the source. How the calls were made is not given here.

As to `CCc1cnc(N2[C@H](C#N)[C@@H](c3ccccc3C3=CCCC3)[C@@H]2CO)s1`, the activity change, negative = inhibition in test [1] (at 1.1 µM (top of the series)) is 18.2% (inactive). `N#C[C@@H]1[C@@H](c2ccccc2)[C@H](CO)N1C(=O)CN1CCOCC1`: the activity change, negative = inhibition in test [1] (at 3.5 µM (top of the series)) was -5.63% (inactive). Consider `COc1ccc(CN2CC3(CN(C(=O)Cc4ccccc4)C3)c3c([nH]c4cc(OC)ccc34)[C@H]2CO)cc1`, for which the activity change, negative = inhibition in test [1] (at 3.5 µM (top of the series)) was -3.26% (inactive).

For the compound `OC(CCN1CCCCC1)c1ccc(-c2ccccc2)cc1` (stereo not drawn), the activity change, negative = inhibition in test [1] (at 10 µM (top of the series)) was 40.4% (inactive). On the same count and under the same terms, for `COc1ccc(S(=O)(=O)Nc2ccc3c(c2)C(=O)N([C@@H](C)CO)C[C@@H](C)[C@H](CN(C)Cc2ccc(C(F)(F)F)cc2)OCCCC[C@@H](C)O3)cc1` the value was -0.502% (inactive). With `COc1cccc(S(=O)(=O)N(C)C[C@H]2OCc3ccccc3-c3c(n(C)c4ccccc34)C(=O)N([C@@H](C)CO)C[C@H]2C)c1`, the activity change, negative = inhibition in test [1] (at 3.5 µM (top of the series)) is -5.41% (inactive).

As to `CC(=O)c1cc(-c2ccccc2)n(CC(=O)NCc2cccs2)c1C`, in test [1] (at 10 µM (top of the series)), the activity change, negative = inhibition is -1.07% (inactive). Regarding `C[C@H]1CN([C@@H](C)CO)C(=O)c2c(c3ccccc3n2C)-c2ccccc2CO[C@H]1CN(C)S(=O)(=O)c1ccc([N+](=O)[O-])cc1`, the activity change, negative = inhibition in test [1] (at 3.5 µM (top of the series)) was -3.2% (inactive). The same measure, in the same setting: for `Oc1cc2c(cc1C(c1ccc(Br)cc1)N1CCCC1)OCO2` (stereo not drawn) the value was 16.1% (inactive). Still for that read-out and setting: the value for `O=C(NCCC(c1ccccc1)c1ccco1)c1cccs1` (stereo not drawn) was 25.6% (inactive); that for `Cc1ccccc1-c1ccc(C2[C@@H]3CN(C(=O)Nc4cccc(F)c4)C[C@H]2N3)cc1` (stereo partly drawn) was 7.95% (inactive). Consider `O=C(Nc1ccccc1F)N1C[C@@H]2N[C@H](C1)C2c1ccc(/C=C/c2ccccc2)cc1` (stereo partly drawn), for which the activity change, negative = inhibition in test [1] (at 3 µM (top of the series)) was 2.39% (inactive). For `C[C@@H]1CN([C@@H](C)CO)C(=O)c2c(c3ccccc3n2C)-c2ccccc2CO[C@@H]1CN(C)Cc1ccccc1C(F)(F)F`, the activity change, negative = inhibition in test [1] (at 10 µM (top of the series)) was 4.94% (inactive).

With `CC(C)OC(=O)CC1C(=O)NCCN1C(=S)NC(=O)c1cccs1` (stereo not drawn), the activity change, negative = inhibition in test [1] (at 10 µM (top of the series)) is 15.3% (inactive). On the same count and under the same terms, the value for `Cc1c(C(=O)c2cccc3ccccc23)c2cccc3c2n1[C@H](CN1CCOCC1)CO3` was -18.3% (inactive); that for `Cc1cc(C)c2c(c1)SC1=NC(c3ccccc3)(C(F)(F)F)NC(=O)N12` (stereo not drawn) was 8.7% (inactive). Consider `COc1ccc(S(=O)(=O)N(C)C[C@@H]2Oc3ccc(NC(=O)Nc4ccc(C(F)(F)F)cc4)cc3C(=O)N([C@H](C)CO)C[C@H]2C)cc1`, for which the activity change, negative = inhibition in test [1] (at 3.5 µM (top of the series)) is -10.6% (inactive). Same read-out and setting: for `CC(C)NC(=O)N1CC(=O)N2[C@H](CO)[C@@H](c3ccc(/C=C/c4ccccc4)cc3)[C@H]2C1` the value was 6.58% (inactive); for `N#C[C@H]1[C@H](c2ccc(C#CC3CCCCC3)cc2)[C@H](CO)N1C(=O)Nc1ccc(F)cc1`, -7.18% (inactive). Take `CC12CC[C@H]3[C@@H](CCC4(O)C[C@H](O)CCC34/C=N/NC(=O)Cc3ccccc3)C1(O)CCC2C1=CC(=O)OC1` (stereo partly drawn): the activity change, negative = inhibition in test [1] (at 10 µM (top of the series)) is 5.75% (inactive). The same measure, in the same setting: the value for `COc1ccc(S(=O)(=O)N(C)C[C@@H]2Oc3ccc(NC(=O)Nc4ccc(C(F)(F)F)cc4)cc3C(=O)N([C@@H](C)CO)C[C@@H]2C)cc1` was 8.35% (inactive). As for `O=C1C(=Cc2ccccc2[N+](=O)[O-])Cc2ccccc21`, in test [1] (at 0.38 µM (top of the series)), the activity change, negative = inhibition is 19.6% (inactive). As for `C[C@@H]1CN([C@H](C)CO)C(=O)c2c(c3ccccc3n2C)-c2ccccc2CO[C@H]1CN(C)C(=O)Nc1ccccc1C(F)(F)F`, in test [1] (at 10 µM (top of the series)), the activity change, negative = inhibition was -0.491% (inactive).

Consider `O=C(Nc1ccccc1F)N1CCCCN2[C@H](CO)[C@H](c3ccc(/C=C/c4ccccc4)cc3)[C@H]2C1`, for which the activity change, negative = inhibition in test [1] (at 10 µM (top of the series)) is -13.9% (inactive). On the same count and under the same terms, the value for `Cc1ccc2nc(-c3cc(-c4ccccc4)no3)cn2c1` was 34.4% (inactive); that for `Cc1ccc(-c2cc(C(=O)N3CCCC(C(F)(F)F)C3)c3ccccc3n2)o1` (stereo not drawn) was 16.7% (inactive).

For the compound `COc1ccc(-c2cnc3c(c2)C(=O)N([C@H](C)CO)C[C@@H](C)[C@@H](CN(C)C(=O)Nc2c(C)noc2C)O3)cc1`, the activity change, negative = inhibition in test [1] (at 3.5 µM (top of the series)) was -1.25% (inactive). Same read-out and setting: the value for `c1cncc(C2=NCCC2)c1` was -2.83% (inactive).

Consider `CCS(=O)(=O)N1[C@H](CO)[C@@H](c2ccc(C#Cc3ccccc3F)cc2)[C@@H]1C#N`, for which, in test [2], the half-maximal activity concentration (AC50) is 4.12 µM. Still for that read-out and setting: for `CCCCNC(=O)C1(C)CCN1C(=O)c1cc(-c2cccs2)oc1C` (stereo not drawn) the value was 3.11 µM.

With `CC(C)NC(=O)N1Cc2cc(C(=O)NC3Cc4ccccc4C3)nc(-c3cccc(-c4cccnc4)c3)c2[C@@H]1CCO`, the half-maximal activity concentration (AC50) in test [2] is 10.6 µM. On the same count and under the same terms, the value for `N#C[C@@H]1[C@H](c2ccc(C#CC3CCCCC3)cc2)[C@@H](CO)N1C(=O)Nc1ccc(F)cc1` was 10.4 µM. With `N#Cc1c(Br)n(C2OC(CO)C(O)C2O)c2ncnc(N)c12` (stereo not drawn), the AC50 in test [2] is 1.74 µM.

(Values after PubChem BioAssay AID1259332 (Broad Institute, 2017).)
